Data on 32 molecules can be found in US4963566A, “Benzimidazolyl-sulfinyl-tetrahydroquinolines” (Otsuka Pharmaceutical Co., Ltd., priority 1986, dated 1990).

T1 sequence (P19156 2-1034 limits assumed): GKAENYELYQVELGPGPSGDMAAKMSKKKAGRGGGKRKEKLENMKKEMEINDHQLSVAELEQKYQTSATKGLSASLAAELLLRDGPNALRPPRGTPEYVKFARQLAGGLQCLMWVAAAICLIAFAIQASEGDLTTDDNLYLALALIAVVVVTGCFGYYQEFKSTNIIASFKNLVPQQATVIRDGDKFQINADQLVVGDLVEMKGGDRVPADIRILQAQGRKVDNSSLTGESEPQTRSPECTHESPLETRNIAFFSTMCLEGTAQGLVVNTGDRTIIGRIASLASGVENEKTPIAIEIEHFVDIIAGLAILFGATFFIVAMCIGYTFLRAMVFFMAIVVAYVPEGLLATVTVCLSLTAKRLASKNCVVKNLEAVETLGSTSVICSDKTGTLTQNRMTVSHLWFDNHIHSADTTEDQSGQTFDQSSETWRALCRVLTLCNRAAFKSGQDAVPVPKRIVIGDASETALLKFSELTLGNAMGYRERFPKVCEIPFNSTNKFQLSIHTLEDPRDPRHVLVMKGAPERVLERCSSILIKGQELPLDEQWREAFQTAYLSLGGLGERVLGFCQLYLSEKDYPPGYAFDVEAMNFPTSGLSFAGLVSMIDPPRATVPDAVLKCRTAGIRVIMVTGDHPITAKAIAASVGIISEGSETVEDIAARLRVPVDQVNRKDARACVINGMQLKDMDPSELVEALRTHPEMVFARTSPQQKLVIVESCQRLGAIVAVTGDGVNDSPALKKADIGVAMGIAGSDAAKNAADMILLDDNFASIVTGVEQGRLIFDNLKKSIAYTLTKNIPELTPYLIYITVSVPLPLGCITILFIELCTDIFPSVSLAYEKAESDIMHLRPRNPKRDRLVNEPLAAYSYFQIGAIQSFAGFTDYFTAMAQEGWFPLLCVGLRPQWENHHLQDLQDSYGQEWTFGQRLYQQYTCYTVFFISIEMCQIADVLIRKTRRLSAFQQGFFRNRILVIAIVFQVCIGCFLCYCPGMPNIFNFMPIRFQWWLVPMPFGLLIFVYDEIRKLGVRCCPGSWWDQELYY
T1 sequence (P18434 whole entry partner): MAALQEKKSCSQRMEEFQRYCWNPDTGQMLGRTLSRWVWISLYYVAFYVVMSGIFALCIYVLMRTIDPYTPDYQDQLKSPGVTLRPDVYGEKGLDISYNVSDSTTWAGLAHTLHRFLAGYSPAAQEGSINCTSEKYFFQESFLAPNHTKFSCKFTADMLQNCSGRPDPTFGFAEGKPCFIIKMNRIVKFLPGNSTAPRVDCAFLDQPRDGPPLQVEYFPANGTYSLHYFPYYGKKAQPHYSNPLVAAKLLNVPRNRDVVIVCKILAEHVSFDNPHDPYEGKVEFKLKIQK

The test has as its target T1, H^+ +K^+ ATPase (Sus scrofa, UniProt P19156).
T1 construct: prepared from porcine stomach; from tissue; host or cells: porcine stomach
Briefly: H+ +K+ ATPase inhibition (inorganic phosphoric acid release). Type of test: biochemical. The conditions noted are these: enzyme prepared from porcine stomach; 30 min with compound at room temperature, pH 6.1; then 30 min at 37° C., pH 7.4, 20 mM KCl. The protocol: H^+ +K^+ ATPase (adenosine triphosphatase) (amount of protein: 10 μg) prepared from porcine stomach was added to a Pipes-TRIS [i.e. 2-amino-2-(hydroxymethyl)-1,3-propanediol] buffer solution (pH 6.1) containing 2 mM of piperazine N,N'-bis(2-ethanesulfonic acid), and the mixture was let stand at room temperature. A test compound was dissolved in dimethyl formamide, and the mixture was added to said H^+ +K^+ ATPase buffer solution so that the final concentration should be 1% and let stand for reaction for 30 minutes at room temperature. Then a 75 mM Pipes-TRIS buffer (1 ml, pH 7.4) (containing 4 mM MgCl2, 4 mM Na2 ATP, and 20 mM KCl) and a 75 mM Pipes-TRIS buffer (1 ml, pH 7.4) (containing 4 mM MgCl2, and 4 mM Na2 ATP) were added to the solution individually to make two kinds of samples and these samples were presented for reaction for 30 minutes at 37° C. 40% Trichloroacetic acid (0.3 ml) was added to each sample to stop the reaction. The solution were subjected to centrifugal separation (3000 rpm) for 10 minutes, and the supernatant was taken off, then the formed inorganic phosphoric acid was measured by Fiske and Subbarow's method [J. Biol. Chem. vol. 66, 375 (1925)]. The value of deducting the amount of inorganic phosphoric acid taken from the Pipes-Tris buffer not containing 20 mM KCl from that taken from the Pipes-Tris buffer containing 20 mM KCl was calculated in terms of unit protein and unit hour to be defined as an activity index of enzyme. Inhibition level (%) in doses of administration was estimated by control values and activity indices of enzyme, and from the obtained inhibition level (%), IC50 (dose of administration of compounds to inhibit in 50%) was obtained.
For `CN1CCCc2cccc(C[S+]([O-])c3nc4ccccc4[nH]3)c21` (centres unmarked) [Test compound No. 14, 1-methyl-8-(2-benzimidazolyl)sulfinylmethyl-1,2,3,4-tetrahydroquinoline], the IC50 came out at 170 nM. Under `CN1CCC(=O)c2cccc(C[S+]([O-])c3nc4ccccc4[nH]3)c21` (centres unmarked) [Test compound No. 43, 1-methyl-8-(2-benzimidazolyl)sulfinylmethyl-4-oxo-1,2,3,4-tetrahydroquinoline] stands 6700 nM. As for `CCN1CCCc2cccc(C[S+]([O-])c3nc4ccc(C)cc4[nH]3)c21` (centres unmarked) [Test compound No. 2, 1-ethyl-8-(5-methyl-2-benzimidazolyl)sulfinylmethyl-1,2,3,4-tetrahydroquinoline], the IC50 stood at 180 nM. Under `COc1ccc2nc([S+]([O-])Cc3cccc4c3N(C)CCC4)[nH]c2c1` (centres unmarked) [Test compound No. 16, 1-methyl-8-(5-methoxy-2-benzimidazolyl)sulfinylmethyl-1,2,3,4-tetrahydroquinoline] stands 690 nM; under `C=CCN1CCCc2cccc(C[S+]([O-])c3nc4ccc(OC)cc4[nH]3)c21` (centres unmarked) [Test compound No. 22, 1-allyl-8-(5-methoxy-2-benzimidazolyl)sulfinylmethyl-1,2,3,4-tetrahydroquinoline], 960 nM; under `COc1ccc2nc([S+]([O-])Cc3cccc4c3N(C)CC=C4C)[nH]c2c1` (centres unmarked) [Test compound No. 40, 1,4-dimethyl-8-(5-methoxy-2-benzimidazolyl)sulfinylmethyl-1,2-dihydroquinoline], 520 nM. The result for `CCN1CCC(OC)c2cccc(C[S+]([O-])c3nc4ccccc4[nH]3)c21` (centres unmarked) [Test compound No. 48, 1-ethyl-8-(2-benzimidazolyl)sulfinylmethyl-4-methoxy-1,2,3,4-tetrahydroquinoline] reads 1100 nM. As to `CN1CCCc2cccc(C[S+]([O-])c3nc4ccc(Cl)cc4[nH]3)c21` (centres unmarked) [Test compound No. 18, 1-methyl-8-(5-chloro-2-benzimidazolyl)sulfinylmethyl-1,2,3,4-tetrahydroquinoline], the concentration for half-maximal inhibition (IC50) was 200 nM.

As to `CCC1(O)CCN(C)c2c(C[S+]([O-])c3nc4ccccc4[nH]3)cccc21` (centres unmarked) [Test compound No. 46, 1-methyl-8-(2-benzimidazolyl)sulfinylmethyl-4-ethyl-4-hydroxy-1,2,3,4-tetrahydroquinoline], the IC50 is 1800 nM.

`CCN1CCCc2cccc(C[S+]([O-])c3nc4cccc(C)c4[nH]3)c21` (centres unmarked) [Test compound No. 11, 1-ethyl-8-(4-methyl-2-benzimidazolyl)sulfinylmethyl-1,2,3,4-tetrahydroquinoline]: the IC50 was found to be 500 nM. Turning to `CCN1CC(CO)Cc2cccc(C[S+]([O-])c3nc4ccccc4[nH]3)c21` (centres unmarked) [Test compound No. 54, 1-ethyl-8-(2-benzimidazolyl)sulfinylmethyl-3-hydroxymethyl-1,2,3,4-tetrahydroquinoline], the IC50 worked out at 1200 nM.

For `CCN1CCCc2cc(Br)cc(C[S+]([O-])c3nc4ccccc4[nH]3)c21` (centres unmarked) [Test compound No. 31, 1-ethyl-6-bromo-8-(2-benzimidazolyl)sulfinylmethyl-1,2,3,4-tetrahydroquinoline], the IC50 turned out to be 6400 nM. The result for `CC1=CCN(C)c2c(C[S+]([O-])c3nc4ccc(C)cc4[nH]3)cccc21` (centres unmarked) [Test compound No. 39, 1,4-dimethyl-8-(5-methyl-2-benzimidazolyl)sulfinylmethyl-1,2-dihydroquinoline] reads 130 nM; that for `C=CCN1CCC(OC)c2cccc(C[S+]([O-])c3nc4ccc(C)cc4[nH]3)c21` (centres unmarked) [Test compound No. 62, 1-allyl-8-(5-methyl-2-benzimidazolyl)sulfinylmethylmethyl-4-methoxy-1,2,3,4-tetrahydroquinoline], 4000 nM. With `CC1CCN(C)c2c(C[S+]([O-])c3nc4ccccc4[nH]3)cccc21` (centres unmarked) [Test compound No. 29, 1,4-dimethyl-8-(2-benzimidazolyl)sulfinylmethyl-1,2,3,4-tetrahydroquinolin], the IC50 turned out to be 250 nM.

As to `Cc1ccc2nc([S+]([O-])Cc3cccc4c3N(C)CCC4)[nH]c2c1` (centres unmarked) [Test compound No. 17, 1-methyl-8-(5-methyl-2-benzimidazolyl)sulfinylmethyl-1,2,3,4-tetrahydroquinoline], the IC50 stood at 530 nM.

For the molecule `C=CCN(Cc1ccc(OC)cc1)C1CCN(CC)c2c(C[S+]([O-])c3nc4cc(F)c(OC)cc4[nH]3)cccc21` (centres unmarked) [Test compound No. 70, 1-ethyl-8-(5-fluoro-6-methoxy-2-benzimidazolyl)sulfinylmethyl-4-[N-allyl-N-(4-methoxybenzyl)]amino1,2,3,4-tetrahydroquinoline], the IC50 was found to be 3800 nM. As to `C=CCN(C)C1CCNc2c(C[S+]([O-])c3nc4cc(F)c(OC)cc4[nH]3)cccc21` (centres unmarked) [Test compound No. 71, 8-(5-fluoro-6-methoxy-2-benzimidazolyl)sulfinylmethyl-4-(N-allyl-N-methyl)amino-1,2,3,4-tetrahydroquinoline], the IC50 was 5700 nM. Consider `CCN1CCCc2cccc(C[S+]([O-])c3nc4cc(C)cc(C)c4[nH]3)c21` (centres unmarked) [Test compound No. 12, 1-ethyl-8-(4,6-dimethyl-2-benzimidazolyl)sulfinylmethyl-1,2,3,4-tetrahydroquinoline], for which the IC50 worked out at 420 nM. In the case of `CCN1CCCc2cccc(C[S+]([O-])c3nc4cc(F)c(F)cc4[nH]3)c21` (centres unmarked) [Test compound No. 5, 1-ethyl-8-(5,6-difluoro-2-benzimidazolyl)sulfinylmethyl-1,2,3,4-tetrahydroquinoline], the IC50 was 440 nM.

Consider `CCN1CCC(N(C)C2CC2)c2cccc(C[S+]([O-])c3nc4cc(F)c(OC)cc4[nH]3)c21` (centres unmarked) [Test compound No. 64, 1-ethyl-8-(5-fluoro-6-methoxy-2-benzimidazolyl)sulfinylmethyl-4-(N-methyl-N-cyclopropyl)amino-1,2,3,4-tetrahydroquinoline], for which the IC50 turned out to be 4000 nM. Turning to “1,4-dimethyl-8-(5-fluoro-6-methyl-2-benzimidazolyl)sulfinylmethyl-1,2,3,4- tetrahydroquinoline [Test compound No. 30]”, the IC50 was 610 nM. The result for `C=CCN1CC(C)Cc2cccc(C[S+]([O-])c3nc4ccccc4[nH]3)c21` (centres unmarked) [Test compound No. 38, 1-allyl-8-(2-benzimidazolyl)sulfinylmethyl-3-methyl-1,2,3,4-tetrahydroquinoline] reads 830 nM; that for `CCCCN1CCCc2cccc(C[S+]([O-])c3nc4ccc(C)cc4[nH]3)c21` (centres unmarked) [Test compound No. 25, 1-n-butyl-8-(5-methyl-2-benzimidazolyl)sulfinylmethyl-1,2,3,4-tetrahydroquinoline], 330 nM. Under `CCN1CC(C)(C)C(OC)c2cccc(C[S+]([O-])c3nc4ccc(C)cc4[nH]3)c21` (centres unmarked) [Test compound No. 66, 1-ethyl-8-(5-methyl-2-benzimidazolyl)sulfinylmethyl-4-methoxy-3,3-dimethyl-1,2,3,4-tetrahydroquinoline] stands 330 nM; under `CCN1CCCc2cccc(C[S+]([O-])c3nc4ccc(F)cc4[nH]3)c21` (centres unmarked) [Test compound No. 4, 1-ethyl-8-(5-fluoro-2-benzimidazolyl)sulfinylmethyl-1,2,3,4-tetrahydroquinoline], 1000 nM; under `CCN1CC(C(=O)O)Cc2cccc(C[S+]([O-])c3nc4ccccc4[nH]3)c21` (centres unmarked) [Test compound No. 56, 1-ethyl-8-(2-benzimidazolyl)sulfinylmethyl-3-carboxy-1,2,3,4-tetrahydroquinoline 1/2hydrate], 1900 nM.

On to `C=CCN1CCCc2cccc(C[S+]([O-])c3nc4ccccc4[nH]3)c21` (centres unmarked) [Test compound No. 21, 1-allyl-8-(2-benzimidazolyl)sulfinylmethyl-1,2,3,4-tetrahydroquinoline], for which the IC50 was 330 nM.

With `CCN1CC(C(=O)N(C)C)Cc2cccc(C[S+]([O-])c3nc4ccccc4[nH]3)c21` (centres unmarked) [Test compound No. 55, 1-ethyl-8-(2-benzimidazolyl)sulfinylmethyl-3-dimethylcarbamoyl-1,2,3,4-tetrahydroquinoline 1/3-hydrate], the IC50 is 5100 nM.

`C=C1CCN(CC)c2c(C[S+]([O-])c3nc4ccccc4[nH]3)cccc21` (centres unmarked) [Test compound No. 52, 1-ethyl-8-(2-benzimidazolyl)sulfinylmethyl-4-methylene-1,2,3,4-tetrahydroquinoline]: the IC50 is 3900 nM. As for `CCN1CCCc2cccc(C[S+]([O-])c3nc4ccc(Cl)cc4[nH]3)c21` (centres unmarked) [Test compound No. 8, 1-ethyl-8-(5-chloro-2-benzimidazolyl)sulfinylmethyl-1,2,3,4-tetrahydroquinoline], the IC50 was found to be 220 nM. Under `CCN1CCC(N(C=O)C2CC2)c2cccc(C[S+]([O-])c3nc4cc(F)c(OC)cc4[nH]3)c21` (centres unmarked) [Test compound No. 65, 1-ethyl-8-(5-fluoro-6-methoxy-2-benzimidazolyl)sulfinylmethyl-4-(N-formyl-N-cyclopropyl)amino-1,2,3,4-tetrahydroquinoline] stands 2800 nM.
